Data published in US20220289708A1, “SUBSTITUTED N-PHENYL URACILS, SALTS THEREOF AND THEIR USE AS HERBICIDAL AGENTS” (Bayer Aktiengesellschaft, priority 2019, published 2022).

Assays:
Format in all cases: in vivo
Lolium rigidum = experiment: Post-emergence herbicidal action; settings: rated visually after about 3 weeks vs untreated controls
Procedure, shortened: (§1)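 Greenhouse-grown plants in sandy loam treated at one-leaf stage, 2–3 weeks after sowing, with WP or EC formulations sprayed as aqueous suspension/emulsion plus 0.5% additive at 600 l/ha water; rates 20 g/ha and less. Visual rating after about 3 weeks versus untreated controls (100% = plants dead, 0% = like control).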

Polygonum convolvulus = experiment: Post-emergence herbicidal action; settings: application rate 5 g/ha
Procedure, shortened: as §1

Stellaria media = experiment: Post-emergence herbicidal action; settings: application rate 5 g/ha, rated visually after about 3 weeks vs untreated controls
Procedure, shortened: as §1

Setaria viridis = experiment: Post-emergence herbicidal action; settings: application rate 5 g/ha, rated visually after about 3 weeks vs untreated controls
Procedure, shortened: as §1

Digitaria sanguinalis = experiment: Post-emergence herbicidal action; settings: rated visually after about 3 weeks vs untreated controls
Procedure, shortened: as §1

Alopecurus myosuroides = experiment: Post-emergence herbicidal action; settings: rated visually after about 3 weeks vs untreated controls
Procedure, shortened: as §1

Hordeum murinum = experiment: Post-emergence herbicidal action
Procedure, shortened: as §1

Viola tricolor = experiment: Post-emergence herbicidal action; settings: application rate 5 g/ha
Procedure, shortened: as §1

Amaranthus retroflexus = experiment: Post-emergence herbicidal action; settings: rated visually after about 3 weeks vs untreated controls
Procedure, shortened: as §1

Veronica persica = experiment: Post-emergence herbicidal action
Procedure, shortened: as §1

Matricaria inodora = experiment: Post-emergence herbicidal action; settings: rated visually after about 3 weeks vs untreated controls
Procedure, shortened: as §1

Abutilon theophrasti = experiment: Post-emergence herbicidal action; settings: rated visually after about 3 weeks vs untreated controls
Procedure, shortened: as §1

Echinochloa crus-galli = experiment: Post-emergence herbicidal action; settings: rated visually after about 3 weeks vs untreated controls
Procedure, shortened: as §1

Avena fatua = experiment: Post-emergence herbicidal action; settings: rated visually after about 3 weeks vs untreated controls
Procedure, shortened: as §1

Pharbitis purpurea = experiment: Post-emergence herbicidal action; settings: application rate 5 g/ha, rated visually after about 3 weeks vs untreated controls
Procedure, shortened: as §1

Oryza sativa = experiment: Post-emergence crop plant compatibility; settings: application rate 5 g/ha
Method: a. Post-Emergence Herbicidal Action and Crop Plant Compatibility
Seeds of monocotyledonous and dicotyledonous weeds and crop plants were placed in sandy loam in plastic or wood-fiber pots, covered with soil and cultivated in a greenhouse under controlled growth conditions. 2 to 3 weeks after sowing, the test plants were treated at the one-leaf stage. The compounds of the invention, formulated in the form of wettable powders (WP) or as emulsion concentrates (EC), were then sprayed onto the green parts of the plants as aqueous suspension or emulsion with addition of 0.5% additive at a water application rate of 600 l/ha (converted). After the test plants had been kept in the greenhouse under optimum growth conditions for about 3 weeks, the activity of the preparations was rated visually in comparison to untreated controls. For example, 100% activity=the plants have died, 0% activity=like control plants.
Tables A16 to A19 below show the crop plant compatibilities of selected compounds of the general formula (I) according to Tables I.1 to I.36 at an application rate corresponding to 5 g/ha or 20 g/ha, which were obtained in experiments according to the experimental procedure mentioned above. Here, the observed effects on selected crop plants are stated in comparison to the untreated controls (values in %).

Row | Compound | Lolium rigidum (efficacy in %) (Lolium rigidum; application rate 20 g/ha) | Polygonum convolvulus (efficacy in %) (Polygonum convolvulus) | Stellaria media (efficacy in %) (Stellaria media) | Setaria viridis (efficacy in %) (Setaria viridis) | Digitaria sanguinalis (efficacy in %) (Digitaria sanguinalis; application rate 20 g/ha) | Alopecurus myosuroides (efficacy in %) (Alopecurus myosuroides; application rate 20 g/ha) | Hordeum murinum (efficacy in %) (Hordeum murinum; application rate 5 g/ha) | Viola tricolor (efficacy in %) (Viola tricolor) | Veronica persica (efficacy in %) (Veronica persica; application rate 5 g/ha) | Matricaria inodora (efficacy in %) (Matricaria inodora; application rate 5 g/ha) | Avena fatua (efficacy in %) (Avena fatua; application rate 20 g/ha) | Pharbitis purpurea (efficacy in %) (Pharbitis purpurea) | Lolium rigidum (efficacy in %) (Lolium rigidum; application rate 5 g/ha) | Digitaria sanguinalis (efficacy in %) (Digitaria sanguinalis; application rate 5 g/ha) | Alopecurus myosuroides (efficacy in %) (Alopecurus myosuroides; application rate 5 g/ha) | Hordeum murinum (efficacy in %) (Hordeum murinum; application rate 20 g/ha) | Amaranthus retroflexus (efficacy in %) (Amaranthus retroflexus; application rate 5 g/ha) | Abutilon theophrasti (efficacy in %) (Abutilon theophrasti; application rate 5 g/ha) | Echinochloa crus-galli (efficacy in %) (Echinochloa crus-galli; application rate 5 g/ha) | Avena fatua (efficacy in %) (Avena fatua; application rate 5 g/ha) | further results
1 | COCCOC(=O)COc1ncccc1Sc1cc(-n2c(=O)cc(C(F)(F)F)n(C)c2=O)c(F)cc1Cl [I.1-1, 2-Methoxyethyl {[3-({2-chloro-4-fluoro-5-[3-methyl-2,6-dioxo-4-(trifluoromethyl)-3,6-dihydropyrimidin-1(2H)-yl]phenyl}sulfanyl)pyridin-2-yl]oxy}acetate] | 80% | 100% | 90% | 100% | 100% | 80% | 80% | 100% | 100% | 100% | 80% | 100% |  |  |  |  |  |  |  |  | Amaranthus retroflexus (efficacy in %) (Amaranthus retroflexus; application rate 20 g/ha): 100%; Abutilon theophrasti (efficacy in %) (Abutilon theophrasti; application rate 20 g/ha): 100%; Echinochloa crus-galli (efficacy in %) (Echinochloa crus-galli; application rate 20 g/ha): 100%
2 | Cn1c(C(F)(F)F)cc(=O)n(-c2cc(Sc3cccnc3OCC(=O)OCC3CCCO3)c(Cl)cc2F)c1=O (stereo not drawn) [I.1-71] |  | 100% | 100% | 100% |  |  |  | 100% | 100% | 100% | 80% | 100% | 100% | 100% | 80% | 80% | 100% | 100% | 100% |  | 
3 | Cn1c(C(F)(F)F)cc(=O)n(-c2cc(Sc3cccnc3SCC(=O)OC3COC3)c(Cl)cc2F)c1=O [I.10-115] |  | 100% | 100% | 100% | 100% | 80% |  | 100% |  | 90% |  | 100% |  |  |  | 80% | 100% | 100% |  |  | Veronica persica (efficacy in %) (Veronica persica; application rate 20 g/ha): 100%; Echinochloa crus-galli (efficacy in %) (Echinochloa crus-galli; application rate 20 g/ha): 100%; Oryza sativa (efficacy in %) (Oryza sativa): 20%
4 | Cn1c(C(F)(F)F)cc(=O)n(-c2cc(Sc3cccnc3SCC(=O)OCC#N)c(Cl)cc2F)c1=O [I.10-176] |  | 100% | 100% | 100% | 100% |  |  | 100% |  |  |  | 90% |  |  | 80% | 80% |  |  | 100% |  | Amaranthus retroflexus (efficacy in %) (Amaranthus retroflexus; application rate 20 g/ha): 100%; Veronica persica (efficacy in %) (Veronica persica; application rate 20 g/ha): 80%; Matricaria inodora (efficacy in %) (Matricaria inodora; application rate 20 g/ha): 100%; Abutilon theophrasti (efficacy in %) (Abutilon theophrasti; application rate 20 g/ha): 100%; Oryza sativa (efficacy in %) (Oryza sativa): 20%
5 | COCCOC(=O)COc1ncccc1Oc1cc(-n2c(=O)cc(C(F)(F)F)n(C)c2=O)c(F)cc1Cl [I.15-1] | 100% | 100% | 100% | 100% |  |  |  | 100% | 100% | 100% |  | 100% |  | 100% | 80% | 100% | 100% | 100% | 100% | 90% | 
6 | COCCOCCOC(=O)COc1ncccc1Oc1cc(-n2c(=O)cc(C(F)(F)F)n(C)c2=O)c(F)cc1Cl [I.15-23] |  | 100% | 100% | 100% |  | 100% | 80% | 100% | 100% | 90% |  | 100% | 80% | 100% |  |  | 100% | 100% | 100% | 80% | 
7 | COCCCOC(=O)COc1ncccc1Oc1cc(-n2c(=O)cc(C(F)(F)F)n(C)c2=O)c(F)cc1Cl [I.15-26, 3-Methoxypropyl [(3-{2-chloro-4-fluoro-5-[3-methyl-2,6-dioxo-4-(trifluoromethyl)-3,6-dihydropyrimidin-1(2H)-yl]phenoxy}pyridin-2-yl)oxy]acetate] |  | 100% | 100% | 100% |  | 90% |  | 100% | 100% |  | 90% | 100% | 80% | 100% |  | 100% | 100% | 100% | 100% |  | 
8 | Cn1c(C(F)(F)F)cc(=O)n(-c2cc(Oc3cccnc3OCC(=O)OCC3CCCO3)c(Cl)cc2F)c1=O (stereo not drawn) [I.15-71] | 100% | 100% | 100% | 100% |  |  |  | 100% | 100% |  | 80% | 100% |  | 100% | 90% | 100% | 100% | 100% | 100% |  | Matricaria inodora (efficacy in %) (Matricaria inodora; application rate 20 g/ha): 100%
9 | Cn1c(C(F)(F)F)cc(=O)n(-c2cc(Oc3cccnc3OCC(=O)OCC3CCOC3)c(Cl)cc2F)c1=O (stereo not drawn) [I.15-72, Tetrahydrofuran-3-ylmethyl [(3-{2-chloro-4-fluoro-5-[3-methyl-2,6-dioxo-4-(trifluoromethyl)-3,6-dihydropyrimidin-1(2H)-yl]phenoxy}pyridin-2-yl)oxy]acetate] | 100% | 100% | 100% | 100% |  |  | 90% | 100% | 100% | 90% |  | 100% |  | 100% | 90% |  | 100% | 100% | 100% | 80% | 
